Experimental data from PubChem BioAssay AID330 (DTP/NCI, 2004).
Values joined by “and” are separate entries in the source; they are usually repeats but may differ in a detail not shown here. Equal entries are not always repeated. Inconclusive results and toxic doses are left out. How the source made its calls: active means survival T/C of 150% or more; inactive means T/C below 125% in these data.

Tested on: P388 leukemia ip, CD2F1 mice, survival T/C
Assay: NCI In Vivo Anticancer Drug Screen. Data for tumor model P388 Leukemia (intraperitoneal) in CD2F1 (CDF1) mice
Conditions: endpoint: median survival time, higher = longer survival
In short: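 Mice carrying the transplanted tumor received test compound or vehicle. Survival was recorded in each group, and the value is the treated-group measurement divided by that of the vehicle-treated control group.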

[1] = dose: 6.25 mg/kg/injection, schedule: Q01DX009 (ip), vehicle: saline with Tween-80
[2] = dose: 25.0 mg/kg/injection, schedule: Q01DX009 (ip), vehicle: saline with Tween-80
[3] = dose: 100.0 mg/kg/injection, schedule: Q01DX009 (ip), vehicle: saline with Tween-80
[4] = dose: 200.0 mg/kg/injection, schedule: Q01DX009 (ip), vehicle: saline with Tween-80
[5] = dose: 50.0 mg/kg/injection, schedule: Q01DX005 (ip), vehicle: saline with Tween-80
[6] = dose: 100.0 mg/kg/injection, schedule: Q01DX005 (ip), vehicle: saline with Tween-80
[7] = dose: 200.0 mg/kg/injection, schedule: Q01DX005 (ip), vehicle: saline with Tween-80
[8] = dose: 50.0 mg/kg/injection, schedule: Q01DX009 (ip), vehicle: saline
[9] = dose: 100.0 mg/kg/injection, schedule: Q04DX002 (ip), vehicle: Klucel (hydroxypropylcellulose) (HPC)
[10] = dose: 200.0 mg/kg/injection, schedule: Q04DX002 (ip), vehicle: Klucel (hydroxypropylcellulose) (HPC)
[11] = dose: 400.0 mg/kg/injection, schedule: Q04DX002 (ip), vehicle: Klucel (hydroxypropylcellulose) (HPC)
[12] = dose: 50.0 mg/kg/injection, schedule: Q01DX009 (ip), vehicle: saline with Tween-80

Measured: T/C

O=C1N/C(=N\c2nc3ccccc3s2)c2ccccc21
inactive: [1] 88 % of control | [2] 91 % of control | [3] 86 % of control | [4] 89 % of control

CC(=O)OCC1OC(n2cccnc2=O)C(OC(C)=O)C1OC(C)=O (centres undefined)
inactive: dose: 50.0 mg/kg/injection, schedule: Q01DX005 (ip), vehicle: saline 107 % of control | dose: 100.0 mg/kg/injection, schedule: Q01DX005 (ip), vehicle: saline 107 % of control | dose: 200.0 mg/kg/injection, schedule: Q01DX005 (ip), vehicle: saline 107 % of control | dose: 400.0 mg/kg/injection, schedule: Q01DX005 (ip), vehicle: saline 102 % of control

Cc1nc2ccc(O)cc2c(C(=O)O)c1C(=O)O
inactive: [5] 100 % of control | [6] 96 % of control | [7] 104 % of control

CC(=Nc1ccccc1)C1=C(O)C(Cc2ccccc2)NC1=O (centres undefined)
inactive: [2] 106 % of control

O=C1C/C(=N\O)CON1c1ccccc1
inactive: dose: 100.0 mg/kg/injection, schedule: Q01DX002 (ip), vehicle: Klucel (hydroxypropylcellulose) (HPC) 106 % of control | dose: 200.0 mg/kg/injection, schedule: Q01DX002 (ip), vehicle: Klucel (hydroxypropylcellulose) (HPC) 98 % of control | dose: 400.0 mg/kg/injection, schedule: Q01DX002 (ip), vehicle: Klucel (hydroxypropylcellulose) (HPC) 90 % of control

CC(C)COCCCN
inactive: dose: 12.5 mg/kg/injection, schedule: Q01DX009 (ip), vehicle: saline 100 % of control | dose: 12.5 mg/kg/injection, schedule: Q04DX003 (ip), vehicle: saline 91 % of control | dose: 25.0 mg/kg/injection, schedule: Q01DX009 (ip), vehicle: saline 100 % of control | dose: 25.0 mg/kg/injection, schedule: Q04DX003 (ip), vehicle: saline 100 % of control | [8] 100 % of control | dose: 50.0 mg/kg/injection, schedule: Q04DX003 (ip), vehicle: saline 91 % of control

CC1(C)CC(OP(=O)(OC2CC(C)(C)N(O)C(C)(C)C2)OC2CC(C)(C)N(O)C(C)(C)C2)CC(C)(C)N1O
inactive: [9] 92 % of control | [10] 99 % of control | [11] 104 % of control

N=C(N)c1ccc(-c2ccc(-c3ccc(C(=N)N)cc3)o2)cc1
inactive: dose: 3.13 mg/kg/injection, schedule: Q01DX009 (ip), vehicle: saline with Tween-80 94 % of control | [1] 102 % of control

CC[C@H](C)[C@H](NC(=O)OC(C)(C)C)C(=O)ON1C(=O)CCC1=O
inactive: [5] 109 % of control | [6] 113 % of control | [7] 109 % of control

c1ccc(-c2c[n+]3ccccc3n2-c2ccccc2)cc1
inactive: dose: 1.56 mg/kg/injection, schedule: Q01DX009 (ip), vehicle: saline 100 % of control | dose: 3.12 mg/kg/injection, schedule: Q01DX009 (ip), vehicle: saline 94 % of control | dose: 6.25 mg/kg/injection, schedule: Q01DX009 (ip), vehicle: saline 101 % of control and 92 % of control

CCCC1C2C=CC(C(S(=O)(=O)c3ccccc3)C2)N1C(=O)OCC (centres undefined)
inactive: dose: 25.0 mg/kg/injection, schedule: Q01DX005 (ip), vehicle: saline with Tween-80 100 % of control | [5] 103 % of control | [6] 102 % of control | [7] 102 % of control

S=C(Nc1ccc(N=Nc2ccccc2)cc1)SCc1ccc(Cl)cc1
inactive: [8] 97 % of control | dose: 100.0 mg/kg/injection, schedule: Q01DX009 (ip), vehicle: saline 103 % of control | dose: 200.0 mg/kg/injection, schedule: Q01DX009 (ip), vehicle: saline 100 % of control | dose: 200.0 mg/kg/injection, schedule: Q01DX009 (ip), vehicle: suspension in saline 93 % of control

Cc1nn(C(=S)S)c(C)c1N=Nc1ccccc1[N+](=O)[O-]
inactive: [9] 103 % of control | [10] 94 % of control | [11] 107 % of control

CCOC(=O)C(CCBr)SC (centres undefined)
inactive: [2] 99 % of control | [12] 100 % of control | [3] 99 % of control

O=C(NC(=S)c1ccc(Cl)cc1)Nc1ccc(Cl)c(Cl)c1
inactive: dose: 5.0 mg/kg/injection, schedule: Q01DX009 (ip), vehicle: saline with Tween-80 87 % of control | dose: 10.0 mg/kg/injection, schedule: Q01DX009 (ip), vehicle: saline with Tween-80 96 % of control | dose: 20.0 mg/kg/injection, schedule: Q01DX009 (ip), vehicle: saline with Tween-80 100 % of control

Nn1nnc2cc3c(cc21)nnn3N
inactive: dose: 100.0 mg/kg/injection, schedule: Q04DX002 (ip), vehicle: saline with Tween-80 109 % of control | dose: 200.0 mg/kg/injection, schedule: Q04DX002 (ip), vehicle: saline with Tween-80 98 % of control | dose: 400.0 mg/kg/injection, schedule: Q04DX002 (ip), vehicle: saline with Tween-80 95 % of control

O=C(NC(=O)c1cccc2ccccc12)NC(=S)c1ccc(Br)cc1
inactive: dose: 12.5 mg/kg/injection, schedule: Q01DX001 (ip), vehicle: saline 101 % of control | dose: 25.0 mg/kg/injection, schedule: Q01DX001 (ip), vehicle: saline 101 % of control | dose: 50.0 mg/kg/injection, schedule: Q01DX001 (ip), vehicle: saline 101 % of control

CCON1CCC(OC(=O)CC)(c2ccccc2)C(C)C1 (centres undefined)
inactive: dose: 100.0 mg/kg/injection, schedule: Q01DX001 (ip), vehicle: saline 111 % of control | dose: 200.0 mg/kg/injection, schedule: Q01DX001 (ip), vehicle: saline 98 % of control

O=C(NC(=O)C(F)(F)F)Nc1cc(F)ccc1F
inactive: [12] 99 % of control | [3] 105 % of control | [4] 107 % of control

CC(C)(C)n1nc(C2CC2)cc1NC(=O)Nc1ccccc1
inactive: dose: 30.0 mg/kg/injection, schedule: Q01DX005 (ip), vehicle: Klucel (hydroxypropylcellulose) (HPC) 99 % of control | dose: 60.0 mg/kg/injection, schedule: Q01DX005 (ip), vehicle: Klucel (hydroxypropylcellulose) (HPC) 98 % of control | dose: 120.0 mg/kg/injection, schedule: Q01DX005 (ip), vehicle: Klucel (hydroxypropylcellulose) (HPC) 98 % of control

O=c1[nH]c2cc(Cl)ccc2c(=O)o1
inactive: dose: 50.0 mg/kg/injection, schedule: Q01DX009 (ip), vehicle: Klucel (hydroxypropylcellulose) (HPC) 112 % of control | dose: 100.0 mg/kg/injection, schedule: Q01DX009 (ip), vehicle: Klucel (hydroxypropylcellulose) (HPC) 100 % of control | dose: 200.0 mg/kg/injection, schedule: Q01DX009 (ip), vehicle: Klucel (hydroxypropylcellulose) (HPC) 103 % of control

CCOP(=O)(O)OCc1ccccc1.[Ti]
inactive: dose: 50.0 mg/kg/injection, schedule: Q01DX001 (ip), vehicle: Klucel (hydroxypropylcellulose) (HPC) 90 % of control | dose: 100.0 mg/kg/injection, schedule: Q01DX001 (ip), vehicle: Klucel (hydroxypropylcellulose) (HPC) 97 % of control | dose: 200.0 mg/kg/injection, schedule: Q01DX001 (ip), vehicle: Klucel (hydroxypropylcellulose) (HPC) 93 % of control
